These results are taken from a melting point compilation (Tetko et al.; mined from patent text by program, amines drawn as free bases though some values may be those of a salt).

SMILES strings stand for the structures.

Usually melting point stands for the temperature, or range, at which the solid turns liquid. `COc1cc(OC)c2c(=O)[nH]c(-c3ccc(OCCNC(C)C)c(-c4cccc(S(C)=O)c4)n3)nc2c1` (stereo not drawn) showed a melting point of 156 to 157 °C.

`CCOC(=O)N1CC[C@H](N(Cc2ccccc2)Cc2ccccc2)[C@H](OC)C1` (relative stereo) returned a melting point of 95.2 °C. As for `c1ccc(C2CCNC3=NCCCN32)cc1` (stereo not drawn), the melting point is 177 to 179 °C. Then `COCCOC(=O)NC(=O)CCl`, with 97 to 99 °C; and `CC(O)c1cc2c3ccccc3[nH]c(=O)n2n1` (stereo not drawn), with 242 to 245 °C; and `CCOC(=O)NC(C(=O)NN(Cc1ccc(-c2cncs2)cc1)CC(O)C(Cc1ccccc1)NC(=O)C(NC(=O)OC)C(C)CC)C(C)C` (stereo not drawn), with 200 to 203 °C.

In the case of `CC(=O)Oc1c(C)c(C)c2c(c1C)CC(C)(CO)O2` (stereo not drawn), the melting point lay in the range of 98 to 99 °C.

`NC(=O)c1ccccc1-c1cnn(CCN2CCCCC2)c1` gave a melting point of 168 °C. Then `O=C(O)c1nn(-c2ccc(Cl)cc2)c2c1[C@H]1CC[C@@H]2C1`, with 110 to 112 °C; and `O=C1CCC(n2cnc3ccc(Br)cc3c2=O)C(=O)N1` (stereo not drawn), with 273 to 275 °C.

In the case of `CCOc1cccc2cc(C(=O)c3cc(OC)ccc3OC)oc12`, the melting point was in the range of 55 to 57 °C. Under `O=C(NC(=O)c1nnn(Cc2ccccc2)c1NC(=O)c1ccccc1)c1ccccc1` stands 171 to 173 °C. Under `CC(C)(C)NC(=O)CCCCl` stands 62.5 to 64 °C.

In the case of `N#CC=C(c1ccc(-c2ccccc2)cc1)c1ccc(-c2ccccc2)cc1`, the melting point amounted to 154 °C. Under `CC(=O)N[C@H]1C(n2cc(Cl)cnc2=O)O[C@H](CO)[C@@H](O)[C@@H]1O` (stereo partly drawn) stands 156 to 158 °C; under `COc1ccc(-c2nc3c(OC(C)=O)cccc3s2)cc1`, 122 to 124 °C. Then `O=Cc1cccnc1SCc1ccccc1`, with 71.5 to 73 °C; and `CC(C)[C@H](S)C(=O)NC(C)(C)C(=O)N[C@@H](Cc1ccc(O)cc1)C(=O)O`, with 180 to 181 °C. In the case of `COc1ccc2[nH]cc(C3CCC4(CC3)OCCO4)c2c1`, the melting point is 153 to 155 °C.

Compound `Cc1ccccc1-c1ccc(C(=O)N2Cc3ccc(C(=O)NCc4csc(-c5ccc(Cl)cc5)n4)n3Cc3ccccc32)cc1C` came in with a melting point of 61 to 64 °C. Take `CNc1ncc(-c2ccccc2)c(-c2ccccc2)n1`: the melting point lay in the range of 136 to 138 °C. Then `Cc1ccc(NCc2ccc[nH]2)cc1O`, with 115 to 117 °C; and `CCCCCCCCCCC(NC(=O)NC12CC3CC(CC(C3)C1)C2)C(=O)OC` (stereo not drawn), with 75 °C.

The compound `CC(=O)c1ccc2c(c1)CCc1ccc(C(=O)O)cc1S2` registered a melting point of 230 to 232 °C. In turn, `O=C(NCc1ccc(Cl)cc1)c1cnc2sc(CN3CCOCC3)cc2c1O` displayed a melting point of 193 to 195 °C. Then `Cc1cc(C)c(C)c(-c2cc3cnc(N)nc3nc2NC(=O)NC(C)(C)C)c1C`, with over 300 °C; and `CCOC(=O)CON(C)C(=S)Nc1cc(Cl)ccc1C`, with 83 to 84 °C; and `Cc1ccc(OCCOc2ccc(C(=O)C(=O)O)cc2)cc1`, with 135 to 136 °C. Then `CCOc1cc2cc(CO)c(CO)c(-c3ccncc3)c2cc1OCC`, with 159 to 161 °C; and `CC(C)(C)c1cc(C(=O)NCCc2ccc([N+](=O)[O-])cc2)cc(C(C)(C)C)c1O`, with 204 to 206 °C. Then `N#Cc1cnc2c(sc3ccccc32)c1Nc1ccc(Cl)cc1F`, with 250 to 251 °C.

With `O=c1cc(-c2ccc(O)c(F)c2)oc2ncccc12`, the melting point was 267 to 268 °C.

For `COc1ccc(O)c(C2C(=O)Nc3cccc(Br)c32)n1` (stereo not drawn), the melting point lay within 149 to 152 °C. Under `CN1CCN(C(=O)c2ccc3c([N+](=O)[O-])c(O)c(O)cc3c2)CC1` stands over 360 °C; under `O=S(=O)(Cl)C(F)(F)C(F)(F)C(F)(F)C(F)(F)C(F)(F)C(F)(F)C(F)(F)C(F)(F)F`, 36 °C. Under `Cc1ccc(-c2ccc(S(C)(=O)=O)cc2)n1-c1ccc(-c2ccc[nH]2)cc1` stands 225 to 227 °C; under `Cc1cc(C(C)(O)c2scnc2C)c(C)o1` (stereo not drawn), 100 to 102 °C; under `Cc1n[nH]c2c1CCc1[nH]ncc1-2`, 250 to 252 °C. Take `O=C(Nc1ccccc1)O[C@H]1CSC(c2ccccc2)=N[C@@H]1c1ccccc1` (racemic): the melting point is 159 °C. Take `CSc1ccc(-c2n[nH]c(=O)cc2-c2ccc(F)cc2)cc1`: the melting point lay in the range of 197 to 198 °C. Compound `NC(=O)N(O)CCNC(=O)c1cccc(Oc2cccc(C(F)(F)F)c2)c1` had a melting point of 126 to 128 °C.

For `CNC(=O)c1c(C(F)(F)F)nc(C(F)F)c(C(=O)OC)c1NC(C)C`, the melting point is 128 to 130 °C. Under `CCOc1ccc(OC)cc1` stands 30 to 31 °C. Under `OCC#CC1=Cc2ccccc2Sc2ccc(Cl)cc21` stands 111 to 113 °C; under `COc1ccc(CON(CCCBr)S(=O)(=O)c2ccc(C)cc2)cc1`, 89.5 to 91.5 °C; under `COc1ccc2c(c1)CC(=O)N2N`, 136 to 138 °C. Then `COc1cccc(Oc2ncccc2C(=O)NCc2ccccc2Cl)c1`, with 71 to 74 °C. `CCOC(=O)c1cc(N)cc(N)c1` came in with a melting point of 77 to 78 °C. Then `CC(C(=O)c1ccccc1)N1CCN(c2nc3nccc(-c4ccncc4)n3n2)CC1` (stereo not drawn), with 142 to 144 °C. Under `COc1ccccc1C1=NN(C(=O)c2cccnc2)CC1C` (stereo not drawn) stands 124 to 125 °C; under `CC(C)Cc1nc2ccc(Br)cc2c(-c2ccccc2)c1CN`, 129 to 130 °C; under `C=CCc1c(O)ccc2ccc(=O)[nH]c12`, 207 to 209 °C. As for `CSc1nc(N2CCN(CCCCN3C(=O)CC4(CCCC4)CC3=O)CC2)ncc1F`, the melting point lay in the range of 83 to 85 °C. Compound `FC(F)(F)c1cc(I)c2c(c1)ncn2-c1ccccc1` came in with a melting point of 118 to 120 °C. Then `COc1cc2c(cc1-c1cccnc1)-c1c(C3=CCOCC3)c3c(n1CC2)C(=O)N(C(C)(C)C)CCCC3`, with 208 to 210 °C; and `O=Cc1ccc(-c2ccnc(-c3ccc(OC(F)(F)F)cc3)n2)cc1`, with 70 to 73 °C; and `CNC(=O)c1cc2nc(C)c(C)nc2c(Cl)c1NC(=O)c1cc(C(F)(F)F)nn1-c1ncccc1Cl`, with 221 to 224 °C. Under `CCCC[C@H](NC(=O)[C@H](CC(C)C)NC(=O)c1ccc(F)c(F)c1)C(=O)CSCc1ccco1` stands 94 to 100 °C. The compound `CS(=O)(=O)c1ccc(C(CC2CCCC2)C(=O)O)cc1C#N` (stereo not drawn) yielded a melting point of 180 to 181 °C.

Turning to `Cc1nc2c3cccc(Cl)c3ccn2c1CN(C)C`, the melting point lay within 157 to 160 °C. Under `CC(C)(C)OC(=O)NC1CCc2ccccc2NC1=O` (stereo not drawn) stands 199 to 201 °C; under `CC(C)(C)OC(=O)Nc1cc(OC(C)(C)C)c(I)cc1[N+](=O)[O-]`, 94 °C. Under `COc1ccc2c(c1)CN(C(=O)OCc1ccccc1)CC(=O)N2` stands 138 °C; under `O=C(Nc1ccccc1)C1=C(N2CCCCC2)COC1=O`, 157 to 158 °C; under `CC1(C)CC(=C[C@H]2[C@H](C(=O)O)C2(C)C)CC(C)(C)C1` (relative stereo), 116 °C.

`CCc1cc(C(=O)OC)c(C2=NC(=O)C(C)(C(C)C)N2)nc1COC` (stereo not drawn): the melting point lay within 87 to 90 °C.

In the case of `CN(CCOc1ccc(C=C2SC(=O)NC2=O)cc1)C(=O)c1ccccc1`, the melting point lay within 178 to 180 °C. Under `CNCC1=C(C#N)C(c2cccc(C#N)c2Br)c2c[nH]nc2N1` (stereo not drawn) stands 258 °C; under `CCC1(O)CC(=O)OCc2c1cc1n(c2=O)Cc2c-1nc1cc(F)c(F)cc1c2-c1ccccc1` (stereo not drawn), over 250 °C; under `CCCCN1CC2CN(S(=O)(=O)c3ccc(NC(C)=O)cc3)CC(C1)C2(C)C`, 130 °C.

Take `COc1ccc(-c2[nH]nc3c2C(=O)c2c(NC(=O)Cc4ccc5c(c4)OCO5)cccc2-3)cc1`: the melting point stood at 297 °C.

As to `COc1ccc(C(=NO)c2ccccc2F)c(Cl)c1Cl`, the melting point was 195 to 197 °C. Then `Cc1noc2c1C(=O)C(CCCN1CCC(C(=O)c3ccc(F)cc3)CC1)CC2` (stereo not drawn), with 81 to 83 °C; and `CCCC(=O)OCC(=O)C1(OC(=S)CC)CCC2C3CC(C)C4=CC(=O)C=CC4(C)C3C(O)CC21C` (stereo not drawn), with 126 to 128 °C. The compound `O=C(O)CN1C[C@@H](Cc2c[nH]c3ccccc23)N(C(=O)c2cc(C(F)(F)F)cc(C(F)(F)F)c2)CC1=O` yielded a melting point of over 220 °C.

Compound `CCn1nc(C(N)=O)cc1CC(C)C` showed a melting point of 125 to 126 °C.

In turn, `CCCCc1nc(=O)c2cc(C=O)ccc2[nH]1` yielded a melting point of 242 to 244 °C. Under `Cc1cc(Br)cnc1CCCCNc1ncc(Cc2cccnc2)cc1N` stands 85 to 87 °C. The compound `COc1ccc(Cc2cc(Oc3c(C)cc(C=C4N=C(C)OC4=O)cc3C)ccc2OC)cn1` yielded a melting point of 164 to 165 °C. Under `O=c1c2ccccc2n(SC(Cl)(Cl)Cl)c(=O)n1SC(Cl)(Cl)Cl` stands 154 to 156 °C; under `NCCON=C(CCCCCCNC(=NS(=O)(=O)c1ccc(Cl)cc1)N1CC(c2ccccc2)C(c2ccc(Cl)cc2)=N1)c1ccc(C(F)(F)F)cc1` (stereo not drawn), 53 to 58 °C. With `COC(=O)C1=C(C)NC(C)=C(C(=O)OCCN2C(=O)c3ccccc3C2=O)C1c1cccc(C)c1` (stereo not drawn), the melting point lay in the range of 188 to 190 °C. Under `COc1ccc(CSc2nnc(-c3ccc4[nH]ncc4c3)o2)cc1C#N` stands 192 to 193 °C; under `O=C(O)CCC(CC=Cc1cccc(Cl)c1)(C(=O)C=Cc1ccc(Cl)cc1)c1ccccc1` (stereo not drawn), 65 to 105 °C; under `N#Cc1ccccc1N1CCc2ccccc21`, 94 to 96.5 °C.

Compound `CCS(CCO)=NS(=O)(=O)c1ccccc1` (stereo not drawn) displayed a melting point of 75 to 76.5 °C. Then `CCCc1nn(C)c2c(=O)n(CCNc3ccc(C(C)=O)cc3)c(-c3ccc(OC)c(OC)c3)nc12`, with 182 to 184 °C. Under `CCCn1c(=O)c2c(nc(/C=C/c3ccc(OC(=O)c4ccccc4)c(OC)c3)n2C)n(CCC)c1=O` stands 156 to 157 °C.
